Legend:
[1] = in vivo; cited from earlier work
BDL mice [2] = assay: Therapeutic time window in BDL mice, 28 days treatment (Example 4); format: in vivo, mice (C57BL/6n); details: 60 mg/kg p.o. twice daily for 28 days
Protocol: The effect of the time period before start of treatment with Compound 1 on kidney injury in BDL mice was evaluated.
Male mice (C57BL/6n) were used. After completion of quarantine and acclimatization period, animals were randomized based on body weight into experimental groups (n=7 mice per group). On day 0, animals underwent bile duct ligation or sham surgery. From day 3, 21, 42 or 63, animals were treated for 28 days with either vehicle or with Compound 1 at a dose of 60 mg/kg, as shown in Table 4 below. Compound 1 was administered p.o. twice per day. The animals were weighed every day. Blood, urine, bile and tissue samples were collected at the end of the experiment.

BDL mice [3] = assay: Long-term effect on cholemic nephropathy in bile duct ligated mice, 6 weeks (Example 3); format: in vivo, mice (C57BL/6n)
Protocol: The long-term effect of Compound 1 on kidney injury in BDL mice was studied by histology, clinical chemistry and intravital imaging.
[…] […] On day 0, animals underwent bile duct ligation or sham surgery. Compound 1 was administered orally by gavage twice per day. Spontaneous urine samples were collected before BDL as well as on day 1 and weeks 1, 2, 3, 4, 5, and 6 after BDL by cannulation of the urinary bladder. Blood, urine, bile and tissue samples were collected at the end (week 6) of the experiment.

BDL mice [4] = assay: Comparison of ASBT inhibitors in BDL mice, 19 days treatment (Example 5); format: in vivo, mice (C57BL/6n); details: male BDL mice; for serum bile acids / urine bile acids: p.o. once daily for 19 days, Compound 1 60 mg/kg, Compound 2 3 and 10 mg/kg; for urinary NGAL: p.o. once daily, after treatment for 18 days
Protocol: Male mice (C57BL/6n) were used. After completion of quarantine and acclimatization period, animals were randomized based on body weight into experimental groups (n=12 mice per bile duct ligation group along with 5 sham operated controls). On day 0, animals underwent bile duct ligation or sham surgery. The ASBT inhibitors were administered p.o. once daily. The animals were weighed every day. At day 21, blood samples were taken 2 and 6 hours after the final dose. At day 24, animals were sacrificed and samples (urine and blood; liver, kidney, heart and spleen tissues) were collected and analysed.

BDL mice [5] = assay: Short-term effect of ASBT inhibition on urinary bile acid excretion in BDL mice (Example 2); format: in vivo, mice (C57BL/6n); details: female BDL mice; 15, 30, 60 or 120 mg/kg p.o. twice daily for 5 days (day 7-11); all treated groups
Protocol: The short-term effect of oral administration of Compound 1 to BDL mice on the urinary excretion of bile acids was evaluated.
Female mice (C57BL/6n) were used. After completion of quarantine and acclimatization period, animals were randomized based on body weight into experimental groups (n=4-7 mice in each). On day 0, animals underwent bile duct ligation. Compound 1 was administered orally by gavage twice per day. Spontaneous urine samples were collected before BDL and on days 7, 8, 9, 10, 11 and 12 after BDL by cannulation of the urinary bladder, and the concentration of bile acids in urine was determined.

Bioavailability in mice = details: C57BL/6, mouse, in vivo
Protocol: (§1) ASBT inhibitor compounds 1 to 5 were used in the experiments described herein. Values were determined using the assays described in e.g. WO 2020/161217.

hIBAT = biological target: T1, hIBAT (Homo sapiens, UniProt Q12908); assay: hIBAT potency (IC50); format: cell-based
T1 sequence (Q12908 1-348): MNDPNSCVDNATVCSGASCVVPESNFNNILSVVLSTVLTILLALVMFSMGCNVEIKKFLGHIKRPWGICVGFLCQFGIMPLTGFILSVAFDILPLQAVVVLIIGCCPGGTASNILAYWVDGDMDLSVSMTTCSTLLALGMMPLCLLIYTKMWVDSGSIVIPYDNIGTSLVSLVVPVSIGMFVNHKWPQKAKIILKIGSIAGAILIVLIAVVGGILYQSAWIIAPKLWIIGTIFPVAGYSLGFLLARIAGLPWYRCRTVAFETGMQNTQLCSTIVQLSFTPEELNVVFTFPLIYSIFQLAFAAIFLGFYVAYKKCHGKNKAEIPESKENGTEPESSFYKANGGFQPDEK
Protocol: as §1

Caco-2 permeability = format: in vitro ADME; details: human; for Papp A→B: A2B; for Papp B→A: B2A
From the text: Some ASBT inhibitors may show improved or optimal permeability. The permeability may be measured in Caco2 cells, and values are given as Papp (apparent permeability) values in cm/s. In some embodiments, the permeability is between about 0.01×10^−6 cm/s and about 50×10^−6 cm/s, such as between about 0.05×10^−6 cm/s and about 40×10^−6 cm/s, or such as between about 0.1×10^−6 cm/s and about 30×10^−6 cm/s. In some embodiments, the permeability is greater than at least about 0.1×10^−6 cm/s, such as greater than about 0.2×10^−6 cm/s, such as greater than about 0.4×10^−6 cm/s, such as greater than about 0.7×10^−6 cm/s, such as greater than about 1.0×10^−6 cm/s, such as greater than about 2×10^−6 cm/s, such as greater than about 3×10^−6 cm/s, such as greater than about 5×10^−6 cm/s, such as greater than about 7×10^−6 cm/s, such as greater than about 10×10^−6 cm/s, such as greater than about 15×10^−6 cm/s.
as §1

BDL mice [6] = assay: Comparison of ASBT inhibitors in BDL mice, 5 days treatment (Example 6); format: in vivo, mice (C57BL/6n); details: male BDL mice; 10 mg/kg p.o. once daily for 5 days
Protocol: Male mice (C57BL/6n) were used. After completion of quarantine and acclimatization period, animals were randomized based on body weight into experimental groups (n=10 mice per bile duct ligation group). On day 1, animals underwent bile duct ligation. The ASBT inhibitors were administered p.o. once daily. The animals were weighed every day. At day 6, animals were moved to individual cages for cumulative overnight fecal collection (day 6 to 7). At day 8, blood samples were taken 2 and 6 hours after the final dose. Animals were then sacrificed and samples (urine and blood; liver, kidney and ileum tissues) were collected and analysed.

[7] = male BDL mice, dosing started on Day 3
[8] = female BDL mice, 60 mg/kg p.o. twice daily for 6 weeks

Compound: CCCCC1(CCCC)CS(=O)(=O)c2ccc(N(C)C)cc2[C@@H](c2ccc(OCc3ccc(C[N+]45CCN(CC4)CC5)cc3)cc2)[C@H]1O.[Cl-] [maralixibat, 1-{[4-({4-[(4R,5R)-3,3-dibutyl-7-(dimethylamino)-4-hydroxy-1,1-dioxo-2,3,4,5-tetrahydro-1H-1λ^6-benzothiepin-5-yl]phenoxy}methyl)phenyl]methyl}-1,4-diazabicyclo[2.2.2]octan-1-ium chloride]
- systemic absorption following oral administration [1]: less than 10%

Compound: CCCCC1(CC)CN(c2ccccc2)c2cc(SC)c(O/C=C(\F)C(=O)O)cc2S(=O)(=O)C1 (stereo not shown) [Compound 1, (Z)-3-((3-butyl-3-ethyl-7-(methylthio)-1,1-dioxido-5-phenyl-2,3,4,5-tetrahydro-1,5-benzothiazepin-8-yl)oxy)-2-fluoroacrylic acid]
- body weight loss (BDL mice [2]; dosing started on Day 21): reversed body weight loss
- renal injury (BDL mice [2]; dosing started on Day 21): almost completely reversed
- body weight loss (BDL mice [2]; dosing started on Day 42): reversed body weight loss
- renal injury (BDL mice [2]; dosing started on Day 42): partially reversed
- effect on renal injury and body weight loss (BDL mice [2]; dosing started on Day 63): minimal effects
- body weight loss (BDL mice [2]; [7]): reversed body weight loss
- renal injury (BDL mice [2]; [7]): completely prevented
- body weight loss due to BDL (BDL mice [3]; [8]): strongly ameliorated
- severe fibrosis and cystic dilatation of renal tubules (histology) (BDL mice [3]; [8]): antagonized by Compound 1 almost to the levels of control animals without BDL
- urinary BA (BDL mice [3]; [8]): massively increased
- urinary KIM-1 (BDL mice [3]; [8]): strongly reduced
- urinary NGAL (BDL mice [3]; [8]): strongly reduced
- vascular leakage in kidneys (intravital imaging with Evans blue) (BDL mice [3]; [8]): completely reversed
- mortality in the 6 week-period (BDL mice [3]; female BDL mice, 60 mg/kg p.o. twice daily, about 50% died in BDL-vehicle group): no mortality
- therapeutic efficacy in similarly designed study with male mice (BDL mice [3]; male mice, 6 per group): confirmed the therapeutic efficacy
- decrease of serum BA (BDL mice [3]; po, 60 mg/kg, 1008 h): about 90%
- serum bile acids (BDL mice [4]): lower serum bile acids
- urine bile acids (BDL mice [4]): increase urine bile acids
- urinary NGAL (BDL mice [4]): lowered urinary NGAL
- concentrations of bile acids in urine, fold higher after treatment (BDL mice [5]): at least 20 fold
- bioavailability (Bioavailability in mice): 44%
- IC50 (hIBAT): 0.021 µM

Compound: CCCCC1(C)CN(c2ccccc2)c2cc(SC)c(CSCC(=O)O)cc2S(=O)(=O)C1 (stereo not shown) [Compound 3, 2-(((3-butyl-3-methyl-7-(methylthio)-1,1-dioxido-5-phenyl-2,3,4,5-tetrahydro-1,5-benzothiazepin-8-yl)methyl)thio)acetic acid]
- Papp A→B (Caco-2 permeability): 29.3 ×10⁻⁶ cm/s
- Papp B→A (Caco-2 permeability): 25.3 ×10⁻⁶ cm/s

Compound: CCCCC1(CCCC)CN(c2ccccc2)c2cc(SC)c(OCCC(=O)O)cc2S(=O)(=O)N1 [Compound 2, 3-((3,3-dibutyl-7-(methylthio)-1,1-dioxido-5-phenyl-2,3,4,5-tetrahydro-1,2,5-benzothiadiazepin-8-yl)oxy)propanoic acid]
- Papp A→B (Caco-2 permeability): 9.2 ×10⁻⁶ cm/s
- Papp B→A (Caco-2 permeability): 0.9 ×10⁻⁶ cm/s
- serum bile acids (BDL mice [4]): lower serum bile acids
- urine bile acids (BDL mice [4]): increase urine bile acids
- urinary NGAL (BDL mice [4]): lowered urinary NGAL

Compound: CCCCC1(CC)CN(c2ccc(F)cc2)c2cc(SC)c(OCC(=O)O)cc2S(=O)(=O)C1 (stereo not shown) [Compound 5, 2-((3-butyl-3-ethyl-5-(4-fluorophenyl)-7-(methylthio)-1,1-dioxido-2,3,4,5-tetrahydro-1,5-benzothiazepin-8-yl)oxy)acetic acid]
- Papp A→B (Caco-2 permeability): 8.7 ×10⁻⁶ cm/s
- Papp B→A (Caco-2 permeability): 12.9 ×10⁻⁶ cm/s
- IC50 (hIBAT): 0.0024 µM
- urinary NGAL (BDL mice [6]): significantly reduced
